Data on 40 compounds can be found in US8273762B2, “Hexahydro-pyrrolo-isoquinoline compounds” (Janssen Pharmaceutica NV, priority 2005, dated 2012).

T1 sequence (Q9Y5N1 whole entry): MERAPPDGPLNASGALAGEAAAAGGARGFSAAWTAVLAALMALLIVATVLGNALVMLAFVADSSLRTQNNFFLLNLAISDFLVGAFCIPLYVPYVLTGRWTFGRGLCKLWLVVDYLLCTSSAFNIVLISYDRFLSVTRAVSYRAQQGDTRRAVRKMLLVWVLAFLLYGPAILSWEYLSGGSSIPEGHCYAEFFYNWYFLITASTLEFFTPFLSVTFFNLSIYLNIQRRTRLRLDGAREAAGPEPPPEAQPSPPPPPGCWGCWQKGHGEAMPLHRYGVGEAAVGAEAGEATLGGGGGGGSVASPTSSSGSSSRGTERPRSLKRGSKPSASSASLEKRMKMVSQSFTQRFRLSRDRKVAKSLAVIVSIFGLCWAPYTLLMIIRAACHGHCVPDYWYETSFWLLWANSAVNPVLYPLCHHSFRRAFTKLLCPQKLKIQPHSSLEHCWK

The first test addresses T1, cloned human H3 receptor, stably expressed in SK-N-MC cells (Homo sapiens, UniProt Q9Y5N1).
T1 construct: expressed in transfected cells
In words: H3 receptor binding (N-[3H]-α-methylhistamine displacement). The note with it: SK-N-MC membranes, 0.8 nM N-[3H]-α-methylhistamine.
In general, Ki refers to a dissociation constant, usually derived from enzyme kinetics or from competition with a known ligand. Low values mean tighter binding, high ones weaker binding. For the compound `COc1ccc([C@@H]2CN3CCC[C@H]3c3cc(OCCCN4CCOCC4)ccc32)cc1` (racemic) [Example 93], the affinity corresponds to a Ki of 5 nM.
Still for that read-out and setting: under `O=[N+]([O-])c1ccc([C@@H]2CN3CCC[C@H]3c3cccc(OCCCN4CCCCC4)c32)cc1` (relative stereo) [Example 2C, Trans-6-(4-Nitro-phenyl)-7-(3-piperidin-1-yl-propoxy)-1,2,3,5,6,10b-hexahydro-pyrrolo[2,1-a]isoquinoline] stands 29 nM.
In turn, `O=[N+]([O-])c1cccc([C@@H]2CN3CCC[C@H]3c3cc(OCCCN4CCCCC4)ccc32)c1` (relative stereo) [Example 4B, Trans-6-(3-Nitro-phenyl)-9-(3-piperidin-1-yl-propoxy)-1,2,3,5,6,10b-hexahydro-pyrrolo[2,1-a]isoquinoline] gave a Ki of 1 nM.
Same read-out and setting: under `O=[N+]([O-])c1cccc([C@H]2CN3CCC[C@H]3c3cccc(OCCCN4CCCCC4)c32)c1` (relative stereo) [Example 4C, Cis-6-(3-Nitro-phenyl)-7-(3-piperidin-1-yl-propoxy)-1,2,3,5,6,10b-hexahydro-pyrrolo[2,1-a]isoquinoline] stands 98 nM; under `Cc1ccc([C@@H]2CN3CCC[C@H]3c3cc(OCCCN4CCCCC4)ccc32)cc1` (relative stereo) [Example 5B, Trans-9-(3-Piperidine-1-yl-propoxy)-6-p-tolyl-1,2,3,5,6,10b-hexahydro-pyrrolo[2,1-a]isoquinoline], 1 nM; under `Cc1ccc([C@@H]2CN3CCC[C@H]3c3cccc(OCCCN4CCCCC4)c32)cc1` (relative stereo) [Example 5C, Trans-7-(3-Piperidine-1-yl-propoxy)-6-p-tolyl-1,2,3,5,6,10b-hexahydro-pyrrolo[2,1-a]isoquinoline], 85 nM.
Still for that read-out and setting: next, `Clc1ccc([C@H]2CN3CCC[C@H]3c3cc(OCCCN4CCCCC4)ccc32)cc1Cl` (relative stereo) [Example 6B, Trans-6-(3,4-Dichloro-phenyl)-9-(3-piperidin-1-yl-propoxy)-1,2,3,5,6,10b-hexahydro-pyrrolo[2,1-a]isoquinoline]: 1 nM; `Clc1ccc([C@H]2CN3CCC[C@H]3c3cccc(OCCCN4CCCCC4)c32)cc1Cl` (relative stereo) [Example 6C]: 76 nM.
Same read-out and setting: next, `FC(F)(F)c1ccc([C@@H]2CN3CCC[C@H]3c3cc(OCCCN4CCCCC4)ccc32)cc1` (relative stereo) [Example 7B, Trans-9-(3-Piperidin-1-yl-propoxy)-6-(4-trifluoromethyl-phenyl)-1,2,3,5,6,10b-hexahydro-pyrrolo[2,1-a]isoquinoline]: 2 nM; `Clc1ccccc1[C@@H]1CN2CCC[C@H]2c2cccc(OCCCN3CCCCC3)c21` (relative stereo) [Example 12C, Cis-6-(2-Chloro-phenyl)-7-(3-piperidin-1-yl-propoxy)-1,2,3,5,6,10b-hexahydro-pyrrolo[2,1-a]isoquinoline]: 91 nM.
`Clc1ccccc1[C@H]1CN2CCC[C@H]2c2cccc(OCCCN3CCCCC3)c21` (relative stereo) [Example 12D, Trans-6-(2-Chloro-phenyl)-7-(3-piperidin-1-yl-propoxy)-1,2,3,5,6,10b-hexahydro-pyrrolo[2,1-a]isoquinoline]: affinity was put at a Ki of 74 nM.
Same read-out and setting: under `Fc1ccc([C@@H]2CN3CCC[C@H]3c3cccc(OCCCN4CCCCC4)c32)cc1` (relative stereo) [Example 14C] stands 200 nM.
Still for that read-out and setting: under `c1cc([C@@H]2CN3CCC[C@H]3c3cc(OCCCN4CCCCC4)ccc32)ccn1` (relative stereo) [Example 27A, Cis-9-(3-Piperidin-1-yl-propoxy)-6-pyridin-4-yl-1,2,3,5,6,10b-hexahydro-pyrrolo[2,1-a]isoquinoline] stands 1 nM; under `c1cc([C@H]2CN3CCC[C@H]3c3cc(OCCCN4CCCCC4)ccc32)ccn1` (relative stereo) [Example 27B, Trans-9-(3-Piperidin-1-yl-propoxy)-6-pyridin-4-yl-1,2,3,5,6,10b-hexahydro-pyrrolo[2,1-a]isoquinoline], 0.3 nM; under `CSc1ccc([C@@H]2CN3CCC[C@H]3c3cc(OCCCN4CCCCC4)ccc32)cc1` (relative stereo) [Example 39B, Trans-6-(4-Methylsulfanyl-phenyl)-9-(3-piperidin-1-yl-propoxy)-1,2,3,5,6,10b-hexahydro-pyrrolo[2,1-a]isoquinoline], 1 nM.
For `Brc1ccc([C@H]2CN3CCC[C@H]3c3ccc(OCCCN4CCCCC4)cc32)cc1` (relative stereo) [Example 42, Trans-6-(4-Bromo-phenyl)-8-(3-piperidin-1-yl-propoxy)-1,2,3,5,6,10b-hexahydro-pyrrolo[2,1-a]isoquinoline], the affinity, expressed as Ki, was 2 nM.
Same read-out and setting: under `N#Cc1ccc([C@H]2CN3CCC[C@H]3c3ccc(OCCCN4CCCCC4)cc32)cc1` (relative stereo) [Example 43] stands 30 nM; under `c1ccc([C@@H]2CN3CCC[C@H]3c3ccc(OCCCN4CCCCC4)cc32)cc1` (relative stereo) [Example 44], 1 nM.
The same measure, in the same setting: under `c1ccc([C@H]2CN3CCC[C@H]3c3ccc(OCCCN4CCCCC4)cc32)cc1` (relative stereo) [Example 45] stands 16 nM; under `c1cn(-c2ccc([C@@H]3CN4CCC[C@H]4c4cc(OCCCN5CCOCC5)ccc43)cc2)cn1` (relative stereo) [Example 48A, Cis-6-(4-Imidazol-1-yl-phenyl)-9-(3-morpholin-4-yl-propoxy)-1,2,3,5,6,10b-hexahydro-pyrrolo[2,1-a]isoquinoline], 6 nM.
In turn, `c1cn(-c2ccc([C@H]3CN4CCC[C@H]4c4cc(OCCCN5CCOCC5)ccc43)cc2)cn1` (relative stereo) [Example 48B, Trans-6-(4-Imidazol-1-yl-phenyl)-9-(3-morpholin-4-yl-propoxy)-1,2,3,5,6,10b-hexahydro-pyrrolo[2,1-a]isoquinoline] had a Ki of 5 nM.
The same measure, in the same setting: under `c1cnn(-c2ccc([C@H]3CN4CCC[C@H]4c4cc(OCCCN5CCOCC5)ccc43)cc2)c1` (relative stereo) [Example 49] stands 5 nM; under `c1cnc([C@@H]2CN3CCC[C@H]3c3cc(OCCCN4CCOCC4)ccc32)cn1` (relative stereo) [Example 50A, Cis-9-(3-Morpholin-4-yl-propoxy)-6-pyrazin-2-yl-1,2,3,5,6,10b-hexahydro-pyrrolo[2,1-a]isoquinoline], 4 nM; under `c1cnc([C@H]2CN3CCC[C@H]3c3cc(OCCCN4CCOCC4)ccc32)cn1` (relative stereo) [Example 50B, Trans-9-(3-Morpholin-4-yl-propoxy)-6-pyrazin-2-yl-1,2,3,5,6,10b-hexahydro-pyrrolo[2,1-a]isoquinoline], 181 nM.
Still for that read-out and setting: next, `Oc1ccc([C@@H]2CN3CCC[C@H]3c3cc(OCCCN4CCOCC4)ccc32)cn1` (relative stereo) [Example 51A, Cis-5-[9-(3-Morpholin-4-yl-propoxy)-1,2,3,5,6,10b-hexahydro-pyrrolo[2,1-a]isoquinolin-6-yl]-pyridin-2-ol]: 3 nM; `Oc1ccc([C@H]2CN3CCC[C@H]3c3cc(OCCCN4CCOCC4)ccc32)cn1` (relative stereo) [Example 51B, Trans-5-[9-(3-Morpholin-4-yl-propoxy)-1,2,3,5,6,10b-hexahydro-pyrrolo[2,1-a]isoquinolin-6-yl]-pyridin-2-ol]: 5 nM; `c1ncc([C@H]2CN3CCC[C@H]3c3cc(OCCCN4CCOCC4)ccc32)s1` (relative stereo) [Example 52]: 4 nM.
On the same count and under the same terms, next, `c1csc([C@H]2CN3CCC[C@H]3c3cc(OCCCN4CCOCC4)ccc32)n1` (relative stereo) [Example 53]: 3 nM.
For `c1cc([C@H]2CN3CCC[C@H]3c3cc(OCCCN4CCOCC4)ccc32)[nH]n1` (relative stereo) [Example 54], the Ki was 4 nM.
On the same count and under the same terms, under `c1ccn2c([C@H]3CN4CCC[C@H]4c4cc(OCCCN5CCOCC5)ccc43)cnc2c1` (relative stereo) [Example 55] stands 2 nM; under `c1cc([C@H]2CN3CCC[C@H]3c3cc(OCCCN4CCOCC4)ccc32)cs1` (relative stereo) [Example 56], 3 nM; under `N#Cc1cccc([C@H]2CN3CCC[C@H]3c3cc(OCCCN4CCOCC4)ccc32)c1` (relative stereo) [Example 58], 2 nM.
The same measure, in the same setting: under `c1cncc([C@H]2CN3CCC[C@H]3c3cc(OCCCN4CCOCC4)ccc32)c1` (relative stereo) [Example 59] stands 2 nM; under `c1ccc([C@H]2CN3CCC[C@H]3c3cc(OCCCN4CCOCC4)ccc32)nc1` (relative stereo) [Example 60], 3 nM.
The same measure, in the same setting: under `FC(F)(F)Sc1ccc([C@H]2CN3CCC[C@H]3c3cc(OCCCN4CCOCC4)ccc32)cc1` (relative stereo) [Example 61] stands 29 nM.
The compound `FC(F)(F)Sc1cccc([C@H]2CN3CCC[C@H]3c3cc(OCCCN4CCOCC4)ccc32)c1` (relative stereo) [Example 62] gave a Ki of 6 nM.
For `CSc1ccc([C@H]2CN3CCC[C@H]3c3cc(OCCCN4CCOCC4)ccc32)cc1` (relative stereo) [Example 63], the affinity, expressed as Ki, was 16 nM.
`COc1ccc([C@H]2CN3CCC[C@H]3c3cc(OCCCN4CCOCC4)ccc32)cc1Cl` (relative stereo) [Example 64] displayed an inhibition constant (Ki) of 3 nM.
Still for that read-out and setting: under `COc1ccc([C@H]2CN3CCC[C@H]3c3cc(OCCCN4CCOCC4)ccc32)cc1F` (relative stereo) [Example 65] stands 4 nM; under `Clc1ccc([C@H]2CN3CCC[C@H]3c3cc(OCCCN4CCCCC4)ccc32)cc1` (relative stereo) [Example 66B, Trans-6-(4-chloro-phenyl)-9-(3-piperidin-1-yl-propoxy)-1,2,3,5,6,10b-hexahydro-pyrrolo[2,1-a]isoquinoline], 1 nM.

The target of the next test is T2, human H3 receptor (SK-N-MC cells) (Homo sapiens, UniProt Q9Y5N1).
T2 construct: expressed in transfected cells; host or cells: SK-N-MC sublines with CRE-beta-galactosidase reporter
T2 sequence (Q9Y5N1 whole entry): as above
Put plainly: Cyclic AMP accumulation (β-galactosidase reporter, Schild analysis vs histamine). The note with it: read-out: H3 pA2 (converted). The test is classed as cell-based.
Turning to `O=[N+]([O-])c1cccc([C@@H]2CN3CCC[C@H]3c3cc(OCCCN4CCCCC4)ccc32)c1` (relative stereo) [Example 4B, Trans-6-(3-Nitro-phenyl)-9-(3-piperidin-1-yl-propoxy)-1,2,3,5,6,10b-hexahydro-pyrrolo[2,1-a]isoquinoline], the Kb is 0.158 nM.
Regarding `FC(F)(F)c1ccc([C@@H]2CN3CCC[C@H]3c3cc(OCCCN4CCCCC4)ccc32)cc1` (relative stereo) [Example 7B, Trans-9-(3-Piperidin-1-yl-propoxy)-6-(4-trifluoromethyl-phenyl)-1,2,3,5,6,10b-hexahydro-pyrrolo[2,1-a]isoquinoline], the Kb is 6.31 nM.
